Data reported in patent publication US20030130280A1, “Treatment of acute myeloid leukemia with indolinone compounds” (SUGEN, Inc., priority 2001, published 2003).

Experiments:
Format in all cases: cell-based
FLT-3 = target: T1, FLT-3 (Homo sapiens, UniProt P36888); assay: FLT-3 ligand stimulated FLT-3 phosphorylation in OC1-AML5 cells; conditions: FLT-3 ligand stimulated OC1-AML5 cells
T1 construct: The OC1-AML5 cell line which express FLT-3-wild type was obtained (Pharmacia); host or cells: OC1-AML5
T1 sequence (P36888 27-993): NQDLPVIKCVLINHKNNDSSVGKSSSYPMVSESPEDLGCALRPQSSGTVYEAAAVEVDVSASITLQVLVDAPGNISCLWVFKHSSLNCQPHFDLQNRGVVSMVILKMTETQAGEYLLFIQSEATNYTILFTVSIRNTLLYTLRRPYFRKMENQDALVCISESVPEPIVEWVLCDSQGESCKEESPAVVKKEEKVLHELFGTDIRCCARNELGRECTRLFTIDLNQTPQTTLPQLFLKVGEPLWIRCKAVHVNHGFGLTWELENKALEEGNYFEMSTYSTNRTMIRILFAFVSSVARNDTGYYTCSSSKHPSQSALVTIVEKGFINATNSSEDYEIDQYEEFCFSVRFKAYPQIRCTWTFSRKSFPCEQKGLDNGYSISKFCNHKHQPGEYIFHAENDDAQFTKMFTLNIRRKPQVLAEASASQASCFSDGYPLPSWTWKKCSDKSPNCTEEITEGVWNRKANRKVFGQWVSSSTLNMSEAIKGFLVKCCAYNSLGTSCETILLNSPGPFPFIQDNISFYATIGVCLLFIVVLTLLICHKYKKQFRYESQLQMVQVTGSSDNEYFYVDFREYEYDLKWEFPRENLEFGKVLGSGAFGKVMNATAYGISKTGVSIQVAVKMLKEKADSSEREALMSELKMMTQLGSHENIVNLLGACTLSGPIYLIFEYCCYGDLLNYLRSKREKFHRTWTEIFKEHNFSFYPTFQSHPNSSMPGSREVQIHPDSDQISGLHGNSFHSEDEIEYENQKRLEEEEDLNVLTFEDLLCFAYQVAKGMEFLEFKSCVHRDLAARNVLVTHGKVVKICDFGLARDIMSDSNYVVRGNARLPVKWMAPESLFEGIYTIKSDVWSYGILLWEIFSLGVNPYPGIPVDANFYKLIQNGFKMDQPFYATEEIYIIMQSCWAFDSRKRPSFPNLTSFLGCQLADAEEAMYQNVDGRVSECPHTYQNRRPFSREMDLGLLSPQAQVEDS
Text: Cells were stimulated with FLT-3 ligand and lysed. FLT-3 was immunoprecipitated from lysates with a commercially available antibody. Proteins were separated by SDS-polyacrylamide gel electrophoresis, transferred to membranes and analyzed by Western blotting for phosphotyrosine and subsequently for total FLT-3 protein as control.

RS4; 11 = assay: VEGF production, RS4;11 cells; conditions: for VEGF %: 0 uM = 100
RS411 (wild type FLT-3) = assay: Apoptosis by PARP cleavage and caspase 3 staining, wild type cells; conditions: PARP cleavage, caspase 3 staining
Experimental: Apoptosis was measured by analysis of PARP cleavage and by caspase 3 staining.

Stat5 = Stat5 activation by FLT-3 ligand in OC1-AML5 cells (IP/Western, Western, gel shift); conditions: FLT-3 ligand stimulated
Text: Activation of downstream pathways by FLT-3 ligand was also investigated, specifically for Stat5 and erk. Stat5 and Erk are downstream mediators of RTK signaling, and may provide readouts for FLT-3 signaling. Stat 5 is a transcription factor which regulates many genes involves in cell survival and proliferation. Erk½ are kinases on the Raf signaling pathway.

Wild-type FLT-3 = target: T2, Wild-type FLT-3 (Homo sapiens, UniProt P36888); assay: FLT-3 phosphorylation by immunoprecipitation/Western in RS411 cells; on Wild-type FLT-3 (inhibition of phosphorylation): key: +++: very strong inhibition; ++: inhibition; +/−: weak inhibition; −: no inhibition
T2 construct: host or cells: RS411 (RS4;11)
T2 sequence (P36888 27-993): T1 sequence (P36888 27-993)
Experimental: FLT-3 was immunoprecipitated from lysates with a commercially available antibody. Proteins were separated by SDS-polyacrylamide gel electrophoresis, transferred to membranes analyzed by Western blotting for phosphotyrosine and subsequently for total FLT-3 protein as control. […]
Immunoprecipitation and Western Blot (IP/W) analysis: Cells were lysed in lysis buffer (20 mM Tris, pH 7.5; 137 mM NaCl; 10% glycerol; 1% NP-40; 0.1% SDS; 2 mM EDTA) containing protease and phosphatase inhibitors (50 mM sodium fluoride, 1 mM sodium orthovanadate, 2 mM Pefabloc, […], […], […], 4 mM leupeptin, and 4 mM pepstatin A). Equivalent amounts of protein were separated by SDS-PAGE, then transferred to nitrocellulose membranes. For analysis of FLT3 phosphorylation, equivalent amounts of protein from each sample were immunoprecipitated overnight at 4*C. with an agarose-conjugated anti-FLT3 antibody (Santa Cruz Biotechnology, Santa Cruz, Calif.). Immune complexes were washed (150 mM NaCl, 1.5 mM MgCl2, 50 mM HEPES, pH 7.5, 10% glycerol, 0.1% Triton X-100, and 1 mM EGTA) and following SDS-PAGE, proteins were transferred to nitrocellulose membranes. Membranes were probed with an anti-phosphotyrosine antibody (Upstate, Lake Placid, N.Y. or Transduction Laboratories, Lexington, Ky.) and then stripped with Restore Western Blot Stripping Buffer (Pierce, Rockford, Ill.). Membranes were reprobed with an anti-FLT3 antibody (Santa Cruz Biotechnology). Stat5 antibodies for immunprecipitation and Western blot analysis were from Upstate Biotechnology and Transduction labs respectively.

Structure (SMILES): CCN(CC)CCNC(=O)c1c(C)[nH]c(/C=C2\C(=O)Nc3ccc(F)cc32)c1C [Compound 1, 5-(5-Fluoro-2-oxo-1,2-dihydro-indol-3-ylidenemethyl)-2,4-dimethyl-1H-pyrrole-3-carboxylic acid(2-diethylamino-ethyl)-amide]
- FLT-3 phosphorylation (FLT-3): decreased
- VEGF mean sd (RS4; 11; CMPD 1 0.00 uM): 32.82
- VEGF mean sd (RS4; 11; CMPD 1 0.01 uM): 9.62
- VEGF % (RS4; 11; CMPD 1 0.01 uM): 31.0%
- VEGF mean sd (RS4; 11; CMPD 1 0.1 uM): 1.24
- VEGF % (RS4; 11; CMPD 1 0.1 uM): 4.0%
- VEGF mean sd (RS4; 11; CMPD 1 1 uM): 2.3
- VEGF % (RS4; 11; CMPD 1 1 uM): 7.4%
- VEGF mean sd (RS4; 11; CMPD 1 10 uM): 2.94
- VEGF % (RS4; 11; CMPD 1 10 uM): 9.5%
- apoptosis (RS411 (wild type FLT-3)): causes apoptosis
- Stat5 activity (Stat5): inhibited
- Wild-type FLT-3 (inhibition of phosphorylation) (Wild-type FLT-3; RS411 cells, IP/Western): ++
- inhibition of wild-type FLT-3 phosphorylation (Wild-type FLT-3; in words): inhibits
